Reference: patent US20120302614A1, “METHOD FOR IMPROVING CEREBRAL CIRCULATION OR TREATING A CEREBRAL BLOOD FLOW DISORDER” (OSAKA UNIVERSITY, priority 2007, published 2012)
“Also recorded” adds a separate entry of the source.

How the values were obtained:
Aβ-injected mice [1] = assay: Cerebral blood flow response to whisker stimulation (functional hyperemia), Test Example 3; format: in vivo, mouse; conditions: Aβ-injected mice with or without treatment
Procedure: (§1) • Electrophysiology: Long term potentiation was measured as previously reported (Niisato K, Fujikawa A, Komai S, Shintani T, Watanabe E, Sakaguchi G, Katsuura G, Manabe T, Noda M: Age-dependent enhancement of hippocampal long-term potentiation and impairment of spatial learning through the Rho-associated kinase pathway in protein tyrosine phosphatase receptor type Z-deficient mice. J Neurosci 2005; 25:1081-1088). Transverse hippocampal slices (400 μm thick) were prepared from 5- to 10-week-old mice or from 13- to 31-week-old mice and placed in an interface-type holding chamber for at least 1 hr. […] For the analysis of EPSPs, the inventors measured their early rising phase in order to avoid contamination by voltage-dependent components as much as possible. […] The data are expressed as mean±SEM. […] Cerebral blood flow (CBF) was continuously monitored at the site of perfusion with a laser-Doppler probe positioned stereotaxically on the cortical surface and connected to a computerized data acquisition system. CBF values were expressed as percent increase relative to the resting level. Zero values for CBF were obtained after the heart was stopped by an overdose of isoflurane at the end of the experiment. • Effect of topical application of Aβ40 on functional hyperemia: The cranial window was first perfused with Ringer's solution, and CBF responses to whisker stimulation were recorded. […]

[2] = test system: hippocampus (CA1/Schaffer collaterals) of Aβ40-injected mice; assay: Long-term potentiation in hippocampal slices, Test Example 3; format: in vivo, mouse; conditions: Aβ40-injected mice with or without treatment
Procedure: as §1

Aβ-injected mice [3] = assay: Cerebrovascular autoregulation (CBF versus MAP), Test Example 3; format: in vivo, mouse; conditions: Aβ-injected mice with or without treatment
Procedure: as §1

[4] = test system: Aβ injection model (Aβ 1-40 administered intracerebroventricularly); assay: Morris water maze test in Aβ injection model, Test Example 1; format: in vivo, ddY mouse; conditions: oral administration for four weeks in advance of Aβ 1-40
Procedure: The therapeutic effect of olmesartan medoxomil in Aβ injection model and the dose dependency thereof were examined according to the following experimental schedule. [Experimental Schedule]: Prior to the experiment, 8-week old male ddY mice were administered olmesartan medoxomil (0.5 mg/kg/day, 1 mg/kg/day, 3 mg/kg/day or 6 mg/kg/day) or distilled water orally for four weeks (day −28 to −1). Then, Aβ 1-40 was administered to the mice intracerebroventricularly (day 0). (Although Aβ 1-40 was administered into one of the lateral ventricles in WO 2006/059777, Aβ 1-40 was administered in Test Example 1 to both lateral ventricles with an interval of one day between two administrations. Except for this point, Aβ 1-40 administration was performed in the same manner as in WO 2006/059777.) From one week thereafter, a behavioral test to evaluate cognitive function (Morris water maze test; Morris R et al., J Neuroscience Methods 1984, 11, 47-60) was performed (day 7 to 12). As a negative control, mice which had received oral administration of distilled water for four weeks were administered Aβ 40-1 intracerebroventricularly. The administration of olmesartan medoxomil or distilled water was continued until the end of the behavioral test. Measurements were performed as described below. • Hidden platform test: A platform is placed below the water surface of a water pool 150 cm in diameter filled with white water-colored. Mice are released into the water, and the time it takes them to reach the platform is measured. This trial is performed three times a day and for five consecutive days. As they learn, mice become able to reach the platform more quickly day by day. • Visible platform test: Mice are released into the water under such conditions that they can see the platform. The time it takes them to reach the platform is measured. • Probe test: The platform is removed, and mice are released and allowed to swim freely. Those mice with good learning/memory swim in the quadrant where the platform was located searching for the platform. The time they spent in that quadrant is measured. • Annnulus crossing: The number of times mice crossed the platform in the probe test is counted.

## CCCc1nc(C(C)(C)O)c(C(=O)O)n1Cc1ccc(-c2ccccc2-c2nnn[nH]2)cc1 [olmesartan, 4-(1-hydroxy-1-methylethyl)-2-propyl-1-[4-[2-(tetrazol-5-yl)phenyl]phenyl]methylimidazole-5-carboxylic acid]
Aβ-injected mice [1]
  Aβ-induced impairment in neurovascular coupling (CBF response to whisker stimulation): improved; also recorded: recovery of neurovascular coupling
[2]
  long-term potentiation (LTP) in hippocampus, field potential slope after tetanic stimulation: recovery of LTP
Aβ-injected mice [3]
  cerebrovascular autoregulation impaired by Aβ (relation between CBF and MABP): recovered
[4]
  cognitive impairment (spatial memory and learning) in Morris water maze test, overall: ameliorated
